# Experimental data: patent publication US20040138272A1, “1,4-Substituted cyclohexane derivatives” (priority 2002, published 2004)
# “Also recorded” adds a separate entry of the source.
# Legend:
# [1] = tested on: NG108-15 neuronal cell line; experiment: Rapid bioassay of neurite growth in NG108-15 cells; format: cell-based
# Procedure: When neurons are placed on inhibitory substrates in tissue culture, the neurons remain rounded. When an effective Rho kinase inhibitor is added to the neurons, the neurons are able to grow neurites on myelin substrates. The time that it takes for neurons to grow neurites after the addition of a Rho kinase inhibitor is about the same as the time that it takes for neurons to grow neurites if the neurons had been plated on growth permissive substrate such as laminin or polylysine, which time is typically 1 to 2 days in cell culture. An assessment of resulting neurite growth can be scored by visual means. If needed, a quantitative assessment of neurite growth can be performed. This involves measuring after a time such as 1 to 2 days the neurite length a) in control cultures where neurons are plated on myelin substrates and left untreated with Rho kinase inhibitor for such time, b) in positive control cultures, wherein for example neurons are plated on polylysine but left untreated with Rho kinase inhibitor for such time, and c) in cultures analogous to a) and b) that are treated with different concentrations of a Rho kinase inhibitor for such time. […] In this assay, NG108 cells are plated on plastic in the presence or absence of the test substance (a Rho kinase inhibitor). […] The relative efficacy can be assessed by fixing the cultures 5 hours after plating, and counting the number of cells that have grown neurites.
# A rapid bioassay is used to determine the effect of a test compounds on the stimulation of neurite growth in vitro. A neuronal cell line, NG108-15 (ATCC HB-12317), is maintained in culture in Dulbecco's minimal essential medium (DMEM) supplemented with 10% fetal bovine serum, Penicillin/Streptomycin and HAT supplement (Gibco/BRL). For the bioassay, the cells are collected by trypsinisation and ressuspended in DMEM supplemented with 5% FBS, Penicillin/Streptomycin, HAT supplement and 0.25 mg/ml cAMP, adjusted to 1.0×10^4 cells/ml. The cells are plated into wells of a 96 well plate at 100 μls (1000 cells)/well. Cells are incubated 4 h at 37° C. and 5% CO2 in presence of small molecules or cethrin at a concentration of 1000 cells per well of a 96-wells plate in a final volume of 100 ul.
# After incubation, cells are fixed by adding […] 16% PFA and 5.4 μls 2.5% glutaraldehyde to the media in each well. The wells are stained with cresyl violet 0.05% , 100 μls/well for 15 min. Cells with neurites (length≧one cell body) are counted using an inverted light microscope. The % neurite outgrowth is determined by calculating the number of cells with neurites over the total number of counted cells.
# [2] = tested on: PC12 cells on MAG substrates; experiment: Bioassay of PC12 neurite growth on growth inhibitory myelin-associated glycoprotein (MAG) substrates; format: cell-based
# Procedure: PC-12 cells (ATCC CRL-1721) typically extend neurites in response to NGF, but when plated on inhibitory substrates, this outgrowth is inhibited and the cells remain round. We tested the ability of the new compound to grow neurites when plated on inhibitory substrates.
# We used PC12 cells obtained from the American Type Culture Collection. PC12 cells were grown in Dulbecco's modified eagle's medium (DMEM) with 10% horse serum and 5% fetal bovine serum. To test compounds for the ability to overcome growth inhibition, PC12 cells were collected by detaching with trypsin-EDTA (0.05%), then resuspended in DMEM, 1% FBS, and 50 ng/ml nerve growth factor before plating on MAG substrates. MAG used for substrates was purified from myelin after extraction in 1% octylglucoside and separation by ion exchange chromatography (McKerracher et al. 1994, Neuron 13:805-811). Test substrates were prepared as uniform substrates in 96-well plates by drying overnight in the laminar flow hood (Nalge Nunc, Naperville, Ill.). Plates were precoated with polylysine (100 μg/ml) for 3 hours at 37° C., then washed and dried approx. 1 hour. MAG was prepared as a substrate by drying down 8 μg of protein overnight. After plating on the MAG substrate, the cells were grown at 37 C. for two days in the presence or absence of test compound (BA1003, BA1016, BA1017) to allow neurite growth. Polylysine substrates were used as a positive control. Quantitative analysis of neurite outgrowth was with the aid of Northern Eclipse software (Empix Imaging, Mississauga, Ontario). Data analysis and statistics were with Microsoft Excel.
# Referring to FIG. 4 there is shown a graph illustrative of experiments performed in triplicate testing the ability of BA-1003, BA-1016 and BA-1017 to overcome growth inhibition by MAG. PC12 cells were plated on MAG substrates alone (MAG) or MAG substrates in the presence of 0.31 uM, 3.1 um or 31 um concentrations of the test compound. The numbers of neurons that grew neurites were scored, and are shown as the percentage of neurite growth.
# [3] = tested on: retinal ganglion cell axons; experiment: Axon regeneration after optic nerve crush, intravitreal injection; format: in vivo, rat; conditions: adult rats, two weeks after crush
# Procedure: To examine the ability of BA-1016 to promote axon regeneration in vivo, the regeneration of retinal ganglion cell axons was examined in the optic nerve after intravitrial injection of BA-1016. In these experiments, BA-1016 was injected at in the vitreous of rats immediately after optic nerve crush that transects all of the retinal ganglion cell (RGC) axons (Lehmann et al, IBID). Two weeks later the animals cholera toxin B subunit was injected in the eye to anterogradelty label the regenerating RGC axons. The next day the animals were killed perfused with saline, and the optic nerves removed for sectioning. Longitudinal sections of the optic nerve were reacted for anti-cholera toxin immunoreactivity to observe the anterogradely labeled fibers.
# Rats were anesthetized with isoflorane (2.4%) and the head shaved. […] Retinal ganglion cell axons were labeled by CTB were detected by immunohistochemistry for CTB using a goat anti-choleragenoid (List Biological Labs.), a biotinylated rabbit anti-goat (Vector Labs., Burlingame, Calif.) and DTAF-conjugated streptavidin (Jackson Labs., West Grove, Pa.) as described previously (Lehmann et al IBID)
substance,measurement,setting,value
(R)-trans-4-(But-3′-en-1′-amino)-N-(4″-pyridyl)cyclohexane Carboxamide Dihydrochloride [BA-1016],efficacy of the stereoisomers compared (FIG. 2),[1]; BA-1016 versus BA-1017,better efficacy
same,neurite outgrowth (FIG. 2),"[1]; NG108 cells, 3.1 to 31 μM",promote neurite outgrowth
same,neurite outgrowth on MAG substrates at the lowest concentration tested,"[2]; PC12 cells, 0.31 uM",better neurite outgrowth
same,neurite outgrowth on inhibitory MAG substrates (FIG. 4),"[2]; PC12 cells, 0.31, 3.1 or 31 uM, Dihydrochloride",can promote neurite outgrowth; also recorded: able to overcome growth inhibition by MAG
same,distances of axon growth,[3],exceeded 500 um
same,axon regeneration after optic nerve injury (FIG. 5),[3]; Dihydrochloride,can promote axon regeneration; also recorded: RGC axons were observed
